Assay results from patent EP3925949A1, “AZIDO COMPOUNDS AND METHOD FOR MONITORING ACID CERAMIDASE ACTIVITY IN INTACT CELLS USING THEM” (Consejo Superior de Investigaciones Científicas (CSIC), priority 2020, dated 2021).

Key:
Assay type in all cases: cell-based
A375 cells = test: Cell viability (MTT method); conditions: A375/+Dox, 4 h, whole range of concentrations examined
Experimental: A375 cells were seeded at 2.5 × 10^4 cells/mL in 96-well plates (0.1 ml/well) and grown for 24 h. Overexpression of AC was induced with doxycycline at 1 µg/mL for 24 h. Cell viability was examined in triplicate samples by MTT method after treatment with DM120 at different concentrations or with the corresponding percentage of vehicle for 4 h.

acid ceramidase (AC) [1] = biological target: T1, acid ceramidase (AC) (Homo sapiens, UniProt Q13510); test: AC activity by flow cytometry with RBM5-177/CO-1 in intact cells; design: expressed in transfected cells; host or cells: A375/+Dox and FD/AC (overexpressing AC); A375/-Dox and A549 (endogenous AC); conditions: A375/+Dox, 4 h, RBM5-177 as substrate, labelling with CO-1 (1 µM, 10 min)
T1 sequence (Q13510 143-395 limits assumed): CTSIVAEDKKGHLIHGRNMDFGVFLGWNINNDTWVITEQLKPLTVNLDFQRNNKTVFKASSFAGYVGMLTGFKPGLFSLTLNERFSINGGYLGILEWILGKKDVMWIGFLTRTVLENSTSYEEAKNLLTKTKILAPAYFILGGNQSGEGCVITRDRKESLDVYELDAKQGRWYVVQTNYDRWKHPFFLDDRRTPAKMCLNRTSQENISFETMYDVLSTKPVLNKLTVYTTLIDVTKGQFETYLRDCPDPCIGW
T1 sequence (Q13510 22-142 limits assumed): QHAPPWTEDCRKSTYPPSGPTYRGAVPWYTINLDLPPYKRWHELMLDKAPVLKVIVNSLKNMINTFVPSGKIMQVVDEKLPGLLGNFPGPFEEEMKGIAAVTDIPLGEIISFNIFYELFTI
Experimental: Cells were seeded at 1 × 10^5 cells/mL into 6 well plates (1 mL/well) and were allowed to adhere for 24 h. Medium was replaced with fresh medium containing Soclac (5 µM final concentration) and incubated for 1 h. After this time, the medium was replaced with RBM5-177, RBM5-019 or RBM2-37 (5 µM final concentration) +/- Soclac and incubated for 20 min. In the experiments with DM120, the compound, Soclac and RBM5-177 were incubated together for 4 h. After probes incubation, the medium was replaced with fresh medium containing CO-1 (1 µM final concentration), and cells were incubated for 10 min. Then cells were washed 3 times with DMEM for 5 min at 37 °C, and finally washed with 400 µL PBS and harvested with 400 µL Trypsin-EDTA and 600 µL of medium. Pellets were resuspended with 200 µL of PBS and stained cells were analyzed by using a Guava EasyCyte™ flow cytometer (Merck Millipore, Billerica, MA) measuring green fluorescence (488/525 nm). Data analysis was performed using the Multicycle AV program (Phoenix Flow Systems, San Diego, CA).

acid ceramidase (AC) [2] = biological target: T1, acid ceramidase (AC); test: Fluorogenic AC activity in intact cells (substrate RBM14C12); design: expressed in transfected cells; host or cells: A375/+Dox (overexpressing AC); conditions: AC overexpressing A375 cells (A375/+Dox), 4 h, substrate RBM14C12 40 µM
Experimental: To determine AC activity in intact cells, A375 cells were seeded at 2.5 × 10^4 cells/mL in 96-well plates (0.1 ml/well) and grown for 24 h. Overexpression of AC was induced with doxycycline at 1 µg/mL for 24 h. Medium was replaced by DM120 at different concentrations and substrate RBM14C12 at a final concentration of 40 µM in DMEM. The plate was incubated for 4 h at 37°C in 5% CO2. The reaction was stopped with 25 µL of MeOH and then 100 µL of NalO4 (2.5 mg/mL in glycine-NaOH buffer, pH 10.6) was added. After incubation at 37°C for 1 h, 100 µL of 0.1 M glycine-NaOH buffer (pH 10.6) was added and fluorescence was measured spectrophotometrically at excitation and emission wavelengths of 355 and 460 nm, respectively. The same reaction mixture without cells was used as blank.

acid ceramidase (AC) [3] = biological target: T1, acid ceramidase (AC); test: AC activity in intact cells by UPLC-HRMS quantification of RBM5-019 and reacylated products; design: expressed in transfected cells; host or cells: A375/+Dox (overexpressing AC); conditions: A375/+Dox, 4 h, decrease in RBM5-19 amounts by UPLC-HRMS
Experimental: Cells were seeded at 5 × 10^5 cells/mL into 6 well plates (1 mL/well) and were allowed to adhere for 24 h. Medium was replaced with fresh medium containing RBM5-177, RBM5-019 or RBM2-37 (5 μM final concentration). After 30 min, medium was removed; cells were washed with 400 μL PBS and harvested with 400 μL Trypsin-EDTA and 600 μL of medium. NC recombinant enzyme, lysates from A375-AC overexpressing cells, MEF5 or microsomes from HeLa T-Rex ACER1-TET-ON and HeLa T-Rex ACER2-TET-ON cells stably overexpress ACER1 orACER2 respectively were incubated with RBM5-177 or RBM5-019 (10 μM final concentration) for 3 h in the corresponding ceramidase activity buffer. Cell pellets were resuspended with 100 μL of H2O and mixed with 750 μL of methanol: chloroform, 2:1. Samples were heated at 48°C overnight and next day, 75 μL of 1 M KOH in methanol were added, followed by 2 h incubation at 37°C. Afterwards, the saponification was neutralised with 75 μL of 1 M acetic acid and solvent was removed using a […] (Thermo Scientific). Sphingolipid extracts, fortified with internal standards (N-dodecanoylsphingosine, N-dodecanoylglucosylsphingosine, N-dodecanoylsphingosylphosphorylcoline and C17-sphinganine 0.2 nmol each) were solubilised in 150 μL of methanol. Samples were then centrifuged at 9,300 g for 3 min and 130 μL of the supernatant were injected to a Waters Aquity UPLC system connected to a Waters LCT Premier Orthogonal Accelerated Time of Flight Mass Spectrometer (Waters,Milford, MA, USA) operated in positive electrospray ionisation mode. Full scan spectra from 50 to 1500 Da were acquired and individual spectra were summed to produce data points each 0.2 s. Mass accuracy and reproducibility were maintained by using an independent reference spray by the LockSpray interference. The analytical column was a 100 mm x2.1 mm i.d., 1.7 μm C8 Acquity UPLC BEH (Waters). The two mobile phases were phase A: methanol/water/formic acid (74/25/1 v/v/v); phase B: methanol/formic acid (99/1 v/v), both also contained 5 mM ammonium formate. […]

CerS = CerS activity-dependence of labelling with RBM5-177 (confocal microscopy and UPLC-HRMS); conditions: A375/+Dox cells, FB1 100 µM, 24 h
Experimental: Cells were seeded at 5 × 10^5 cells/mL into 6 well plates (1 mL/well) and were allowed to adhere for 24 h. Medium was replaced with fresh medium containing RBM5-177, RBM5-019 or RBM2-37 (5 µM final concentration). After 30 min, medium was removed; cells were washed with 400 µL PBS and harvested with 400 µL Trypsin-EDTA and 600 µL of medium. NC recombinant enzyme, lysates from A375-AC overexpressing cells, MEF5 or microsomes from HeLa T-Rex ACER1-TET-ON and HeLa T-Rex ACER2-TET-ON cells stably overexpress ACER1 orACER2 respectively were incubated with RBM5-177 or RBM5-019 (10 µM final concentration) for 3 h in the corresponding ceramidase activity buffer. Cell pellets were resuspended with 100 µL of H2O and mixed with 750 µL of methanol: chloroform, 2:1. Samples were heated at 48°C overnight and next day, 75 µL of 1 M KOH in methanol were added, followed by 2 h incubation at 37°C. Afterwards, the saponification was neutralised with 75 µL of 1 M acetic acid and solvent was removed using a Speed Vac Savant SPD131 DDA (Thermo Scientific). […]
Cells were seeded at 1 × 10^5 cells/mL on glass-bottom plates and allowed to adhere for 24 h. […] Co-localization coefficients were measured using the JaCoP plugin (S. Bolte et al. J. Microsc. 2006, 224, 213-232) on the different stacks of images (at least n=4) with each stack containing 3-10 cells.

acid ceramidase (AC) [4] = biological target: T1, acid ceramidase (AC); test: AC activity-dependence of labelling (fluorescence confocal microscopy); design: expressed in transfected cells; host or cells: FD/AC (overexpressing AC); conditions: A375/+Dox and A375/-Dox, with or without SOCLAC (Fig. 7A)
Experimental: Cells were seeded at 1 × 10^5 cells/mL on glass-bottom plates and allowed to adhere for 24 h. For golgi staining, cells were incubated with 40 µL/well of CellLight Golgi-RFP BacMam 2.0 for 24 h. […] After this time, the medium was replaced with fresh medium containing CO-1 (1 µM final concentration), and cells were incubated for 10 min. Then cells were washed 3 times with DMEM for 5 min at 37 °C, 75 nM LysoTracker Red DND-99 or 75 nM Mitotracker in phenol red-free DMEM was added to stain lysosomes or mitochondria, and cells were kept in the incubator for microscope analysis. Staining was viewed with a Zeiss LSM 880 confocal microscope or Leica TCS SP8-Hyvolution. Image analysis was performed using Fiji software.^[7] To measure the Manders's and Pearson's coefficients a threshold including organelles and discarding the background was set. Co-localization coefficients were measured using the JaCoP plugin (S. Bolte et al. J. Microsc. 2006, 224, 213-232) on the different stacks of images (at least n=4) with each stack containing 3-10 cells.

Q: What does the source list for `CCCCCCCCCCCCC/C=C/[C@H](CO)NC(=O)C(C)(C)C` [DM120]?
A: toxicity (A375 cells): without toxicity in the whole range of concentrations examined; IC50 (acid ceramidase (AC) [1]): 27 µM; IC50 (acid ceramidase (AC) [2]): 9.4 µM; IC50 (acid ceramidase (AC) [3]): 18 µM

Q: Which “effect on transacylation (N-acylderivatives)” value (CerS; UPLC-HRMS (Fig. 4B)) does the source give for `CCCC[C@@H](C)[C@@H](OC(=O)C[C@@H](CC(=O)O)C(=O)O)[C@H](C[C@@H](C)C[C@H](O)CCCC[C@@H](O)C[C@H](O)[C@H](C)N)OC(=O)C[C@@H](CC(=O)O)C(=O)O` [FB1, Fumonisin B1] here?
A: transacylation was blocked

Q: What about the “effect on extralysosomal staining” value (CerS; confocal microscopy (Fig. 4A)) of the same compound?
A: prevented

Q: How did the “sensitivity of lysosome labelling to AC activity” value (acid ceramidase (AC) [4]) turn out when `C[C@H](N)[C@H](O)CCCCCCCCCCCCN=[N+]=[N-]` [RBM5-019, (2S,3R)-2-Amino-15-azidopentadecan-3-ol] was run?
A: not sensitive to AC overexpression or blockade
